Laboratory results: article PMC7070036, “An amber obligate active site-directed ligand evolution technique for phage display” (Nature Communications, 2020)
Several values for one entry are separate records, joined by “and”; a condition that tells them apart may be missing. Equal values may be shown once. Non-standard residues stand in square brackets, D forms with d. Residues, ends and D or L forms follow the SMILES beside them. Lys(thiomyristoyl) = CCCCCCCCCCCCCC(=S)NCCCC[C@H](N)C(=O)O

How the values were obtained:
Format in all cases: biochemical
SIRT1 = molecular target: T1, SIRT1 (Homo sapiens, UniProt Q96EB6); experiment: Continuous fluorogenic sirtuin inhibition assay, SIRT1; details: mean ± SD of two independent experiments
T1 sequence (Q96EB6 1-747): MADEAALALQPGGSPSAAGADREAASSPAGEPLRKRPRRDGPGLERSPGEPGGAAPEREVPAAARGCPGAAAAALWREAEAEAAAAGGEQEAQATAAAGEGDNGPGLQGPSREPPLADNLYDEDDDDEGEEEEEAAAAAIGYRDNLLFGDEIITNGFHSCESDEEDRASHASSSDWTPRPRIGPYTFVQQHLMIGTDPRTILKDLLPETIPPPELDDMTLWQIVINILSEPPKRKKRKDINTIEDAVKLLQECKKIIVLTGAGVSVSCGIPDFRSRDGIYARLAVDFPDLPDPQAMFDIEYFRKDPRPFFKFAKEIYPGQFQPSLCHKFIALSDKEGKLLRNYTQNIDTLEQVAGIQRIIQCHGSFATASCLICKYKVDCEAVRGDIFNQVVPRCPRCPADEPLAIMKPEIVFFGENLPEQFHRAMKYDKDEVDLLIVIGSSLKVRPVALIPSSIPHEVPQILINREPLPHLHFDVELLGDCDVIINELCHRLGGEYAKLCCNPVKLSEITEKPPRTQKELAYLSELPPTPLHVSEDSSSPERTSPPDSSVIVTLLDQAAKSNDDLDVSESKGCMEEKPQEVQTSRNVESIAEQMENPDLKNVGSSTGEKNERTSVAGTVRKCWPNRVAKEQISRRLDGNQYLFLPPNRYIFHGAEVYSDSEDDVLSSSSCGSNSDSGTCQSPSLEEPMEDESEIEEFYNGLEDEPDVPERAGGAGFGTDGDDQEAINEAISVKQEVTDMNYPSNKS
Description: The continuous assay for comparing isoform specificity of S2P04 was performed using the universal fluorogenic sirtuin substrate described by Schuster et al.[41]. Briefly, the inhibition reactions were performed in 50-µL volumes at 37 °C in black, half-area, 96-well plates. The sirtuin enzyme (0.25 µM) was preincubated with different concentrations of the peptide S2P04 (0.0064–50 µM for SIRT1 and SIRT2, 0.5–100 µM for SIRT3) or TB (0.16–150 µM for SIRT1–SIRT3), and 1 mM NAD^+ in assay buffer (20 mM Tris, pH 7.8, 150 mM NaCl, 5 mM MgCl2, and 1 mM DTT) for 15 min. Following incubation, the reaction started with the addition of the fluorogenic substrate (5 µM), and product formation was monitored by measuring the fluorescence intensity every 20 s for 5 min (SIRT2) or 30 min (SIRT1 and SIRT3) in a BioTek Synergy H1 microplate reader at λex = 320 nm and λem = 408 nm (gain = 130 and read height = 7 mm). Initial rates of product formation were determined by a linear regression of the plot of fluorescence intensity vs. time and normalized relative to 0% (max inhibitor) and 100% (no inhibitor) controls. The assay was repeated to determine the IC50 values of all BuK peptides for SIRT2. IC50 values were determined by nonlinear regression of the plot of the normalized initial rate vs. inhibitor concentration using GraphPad Prism. The determined IC50 values are provided in Supplementary Table 2, and inhibition curves can be seen in Supplementary Fig. 20.

SIRT2 [1] = molecular target: T2, SIRT2 (Homo sapiens, UniProt Q8IXJ6); experiment: SIRT2 inhibition assay for thiomyristoyl peptides
T2 sequence (Q8IXJ6 1-389): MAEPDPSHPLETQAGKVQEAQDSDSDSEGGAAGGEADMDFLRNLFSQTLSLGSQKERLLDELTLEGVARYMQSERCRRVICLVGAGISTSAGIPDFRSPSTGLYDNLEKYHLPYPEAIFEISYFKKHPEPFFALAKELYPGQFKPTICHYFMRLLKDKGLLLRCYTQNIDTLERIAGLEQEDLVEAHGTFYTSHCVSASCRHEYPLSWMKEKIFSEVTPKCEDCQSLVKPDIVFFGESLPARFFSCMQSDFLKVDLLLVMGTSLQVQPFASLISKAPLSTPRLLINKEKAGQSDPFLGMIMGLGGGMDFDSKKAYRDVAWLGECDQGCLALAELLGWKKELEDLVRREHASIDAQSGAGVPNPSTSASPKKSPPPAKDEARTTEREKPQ
Description: Assays were performed in 40-µL volumes at 37 °C in black, 384-well plates. […] Following incubation, the reaction started with the addition of the fluorogenic substrate (5 µM), and product formation was monitored by measuring the fluorescence intensity every 20 s for 5 min (SIRT2) in a BioTek Synergy H1 microplate reader at λex = 320 nm and λem = 408 nm (gain = 130 and read height = 7 mm). Initial rates were determined using the plot of fluorescence vs. time for linear portions of each curve. IC50 values were then determined using GraphPad Prism to fit a nonlinear regression to the normalized rates vs. inhibitor concentration.

SIRT2 [2] = molecular target: T2, SIRT2; experiment: SIRT2 inhibition assay, no preincubation
Description: The inhibition assay was performed using a universal continuous sirtuin substrate. Assays were performed in 40-µL volumes at 37 °C in black, 384-well plates. Five micrometers of substrate was incubated with different concentrations of peptide or TM (0.5–1000 nM in DMF, 20% DMF final concentration) for 2 min in assay buffer (20 mM Tris, pH 7.8, 150 mM NaCl, 5 mM MgCl2, 1 mM DTT, and 1 mM NAD^+). Following incubation, the reaction started with the addition of SIRT2 (10 nM), and product formation was monitored by measuring the fluorescence intensity every 20 s for 10 min (SIRT2) in a BioTek Synergy H1 microplate reader at λex = 320 nm and λem = 408 nm (gain = 130 and read height = 7 mm). Initial rates were determined using the plot of fluorescence vs. time for linear portions of each curve. The IC50 value was determined using GraphPad Prism to fit a nonlinear regression to the normalized rates vs. inhibitor concentration (Supplementary Fig. 30).

Question: With CCCCCCCCCCCCCC(=S)NCCCC[C@H](NC(=O)[C@@H](NC(=O)[C@@H](NC(=O)[C@@H](N)CS)[C@@H](C)O)C(C)C)C(=O)N[C@H](C(=O)N[C@@H](CO)C(=O)N[C@@H](CC(C)C)C(N)=O)[C@@H](C)O [S2P03-tMyK] (H-CTV[Lys(thiomyristoyl)]TSL-NH2) as the molecule, how does the IC50 (SIRT1) read?
Answer: 400 ± 100 nM

Question: And the IC50 (SIRT2 [1]; 10 nM SIRT2, 15 min preincubation, 5 µM substrate, n = 2)?
Answer: 10 ± 3 nM

Question: And the activity at 0.000465917 µM (SIRT2 [1]; inhibitor 0.465917 nM)?
Answer: 102%

Question: What about the “%Activity, SIRT2” value (SIRT2 [1]; inhibitor 0.465917 nM, 0.000465917 µM) of the same molecule?
Answer: 98.0615%

Question: And the “%Activity, SIRT2” value (SIRT2 [1]; inhibitor 0.931834 nM, 0.000931834 µM)?
Answer: 113.937% and 81.1704%

Question: And the activity at 0.00186367 µM (SIRT2 [1]; inhibitor 1.86367 nM)?
Answer: 99.7%

Question: And the “%Activity, SIRT2” value (SIRT2 [1]; inhibitor 1.86367 nM, 0.00186367 µM)?
Answer: 95.1685%

Question: And the activity at 0.00372734 µM (SIRT2 [1]; inhibitor 3.72734 nM)?
Answer: 96.6%

Question: And the “%Activity, SIRT2” value (SIRT2 [1]; inhibitor 3.72734 nM, 0.00372734 µM)?
Answer: 82.1027%

Question: And the “%Activity, SIRT2” value (SIRT2 [1]; inhibitor 7.45468 nM, 0.00745468 µM)?
Answer: 52.8299% and 73.9018%

Question: What about the activity at 0.0149094 µM (SIRT2 [1]; inhibitor 14.9094 nM) of the same molecule?
Answer: 40.8%

Question: And the “%Activity, SIRT2” value (SIRT2 [1]; inhibitor 14.9094 nM, 0.0149094 µM)?
Answer: 45.2416%

Question: And the “%Activity, SIRT2” value (SIRT2 [1]; inhibitor 477.099 nM, 0.477099 µM)?
Answer: 3.151% and -3.151%

Question: What about the “%Activity, SIRT2” value (SIRT2 [1]; inhibitor 954.198 nM, (Activity/Activity w/o inhibitor)*100, single trials, 0.954198 µM) of the same molecule?
Answer: 11.9872% and 2.232%

Question: And the “change in IC50 without preincubation of enzyme” value (SIRT2 [2])?
Answer: insignificant change in IC50
